According to patent publication US11571484B2, “Compositions that target tumor-associated macrophages and methods of use therefor” (Sanford Burnham Prebys Medical Discovery Institute, priority 2017, dated 2023):
Ends that are not written are not given here. FAM = 5(6)-carboxyfluorescein; Ahx = NCCCCCC(=O)O

Tested on: MRC1/CD206-expressing tumor-associated macrophages (MEMs) in 4T1 tumors
Assay: Free peptide homing and immunofluorescence in the orthotopic 4T1 breast tumor model
Settings: 30 nmoles i.v.
Description: (SEQ ID NO: 5) control peptide were injected intravenously into 4T1 tumor-bearing mice and allowed to circulate for 2 h. Mice were then sacrificed and tumor and tissues were analyzed by immunofluorescence using rabbit anti-FAM (green) and rat anti-CD206 or rat anti-TIE2 (red) antibodies, and counterstained with DAPI. All images were taken under the same imaging conditions. FAM-UNO accumulated in macrophages within tumors and lymph nodes positive for CD206 staining (A, B, C) and TIE2 (D, and H: Blow up of D). […] To ascertain that anti-CD206 is capable of detecting CD206 in the liver, an image was acquired with longer exposure time from an uninjected animal (FIG. 25). […] Green: FAM-peptide; Red: CD206 or TIE2, Blue: DAPI. Representative fields from multiple sections prepared from at least 3 tumors (n≥3 mice) are shown.
Tumor models were induced according to protocols approved by the Estonian Ministry of Agriculture, Committee of Animal Experimentation (permit #48). For the 4T1 breast model, 8-week old female Balb/c mice were injected in the mammary fat pad with 10^6 cells dispersed in 50 μL of PBS. For homing studies, mice were used 10 days later, when the tumor had reached ˜150 mm^3. For MCF-7 breast model, 8-week old female nude mice were implanted with an estrogen pellet, and 1 week later inoculated with 5×10^6 MCF-7 cells in 100 μL of cold Matrigel (BD Biosciences, CA, USA). Mice were used for homing studies three weeks later (tumor volume˜150 mm^3). For the metastatic gastric carcinoma, 10^6 MKN45-P cells in PBS were injected intraperitoneally in 8-week old female nude mice. Mice were used for homing studies two weeks later. For the metastatic melanoma model, 2×10^5 B16F10 cells were injected intravenously in 100 μL of PBS in C57 BL6 mice. The mice were used for homing studies 10 days after. For the angiogenic glioblastoma model, WT-GBM 24, 7×10^5 cells were stereotactically injected in the right striatum of Fox/Nu mice 2 mm lateral and posterior of bregma of 2.5 mm deep. The mice were used for homing studies 6-7 days after the injection.
For free peptide homing studies, mice were injected intravenously with 30 nmoles of FAM-peptides in 100 μL of PBS. For nanoparticle homing studies-FAM-UNO—NP-PTX-, mice were injected intravenously in mice bearing MCF-7 breast tumors with 1 mg of Polymer in 100 μL pf PBS and allowed to circulate for 6 h. For tissue collection, the mice were anesthetized and the tissues collected and immediately placed in 4% cold PFA and left overnight at 4-C. Tissues were washed with PBS for 2 h at room temperature and cryoprotected with sucrose 15% at 4-C overnight and then in sucrose 30% at 4·C overnight. The tumor and the control organs were placed together in the same block with OCT compound (Leica Biosystems, Wetzlar, Germany), snap-frozen in isopentane, and sectioned at 10 μm. FAM was detected using Rabbit anti-FITC (Invitrogen, CA, USA. Catalog # A-889) at a dilution of 1/100 and using Alexa Fluor-546 anti-rabbit antibody (Invitrogen, Ca, USA. Catalog # A-11035) at a dilution of 1/200. CD31 was detected using rat anti-mouse CD31 (BD Biosciences, CA, USA. Catalog #: 553370), TIE2 was detected using rat anti-mouse TIE2 (Biolegend, CA, USA. Catalog #124001), CD209 was detected using rat anti-mouse CD209 (Biolegend, CA, USA. Catalog #147802), HLA ABC was detected using rat anti Human HLA ABC (Bio-Rad, CA, USA. Product code MCA485G), and CD206 was detected using ratanti-mouse CD206 (Bio-Rad, CA, USA. Product code MCA2235GA); using 1/100 primary antibody dilution and Alexa Fluor-647 anti-Rat antibody (Invitrogen, CA, USA. Catalog #21247) at 1/200 dilution. To quantify FAM signal from confocal images, the green channel of images taken by using 20× magnification objective was opened with ImageJ, converted to 8-bit grayscale and the integrated pixel intensity was measured. Different regions of tumors from three different mice were used.

In the case of “FAM-CSPGAK: FAM-labeled linear CSPGAK (SEQ ID NO: 6) (not fully specified; FAM label)”, the “accumulation in MEMs / tumor homing” value (2 h circulation) is reported as “accumulated in MEMs in orthotopic 4T1 breast tumor-bearing mice at levels comparable to FAM-UNO”.
With “FAM-UNO: FAM-labeled UNO peptide CSPGAKVRC (SEQ ID NO: 1); 5(6)-carboxyfluorescein with 6-aminohexanoic acid spacer at the N-terminus ({FAM-Ahx}-CSPGAKVRC; cysteine pairing not given here)” the “time the signal remained readily detectable in MEMs after administration” value was “up to 12 h”, the “accumulation in liver, heart, lungs and spleen” value (2 h) was “low” and the “internalization in MEMs (high resolution confocal microscopy)” value (2 h) was “internalized in MEMs”. For the same substance, the “overlap with CD209 in sections from 4T1 tumors” value (2 h) was “only a moderate overlap with CD209”, the “accumulation in MEMs / tumor homing” value (2 h circulation) was “accumulated in MEMs in tumors and in sentinel lymph nodes” and the “cells positive for FAM-UNO that were also positive for CD206, in tumors” value (2 h circulation) was 96%. For the same substance, the “FAM fluorescence in the kidneys” value (2 h time point) was “FAM-fluorescence was observed in the kidneys”.
